Laboratory results from patent publication US20150320709A1, “METHODS AND COMPOSITIONS FOR FACILITATING WEIGHT LOSS BY ADMINISTRATION OF THYROID HORMONES” (priority 2011, published 2015).

Experiment: Circulating thyroid hormone labs (FT3, FT4, rT3, TSH) in weight loss program patients on thyroid hormone treatment
Type: in vivo, human
Excerpt: FIG. 1 depicts hormonal responses to a hypocaloric state with subsequent treatment. Note: Time frames and shapes of response curves are approximated. Levels of all four hormones are normal before the diet (Time A). At time between time points B and D, TSH is dropping slightly to signal the thyroid gland to make less thyroid hormone. This drop is the mechanism to decrease metabolism in the hypocaloric state. At point C, free T3 begins to drop as rT3 increases. Also at time point C, different observations have been reported for changes in FT4: in our experience, FT4 also drops as indicated on the graph. In the literature, some report no change, whereas others report an increase in FT4. By the time of the blood sampling (time E), in our experience, patients whose FT3 and FT4 have dropped to the low end of normal (with possible above normal rT3 levels) are those experiencing symptoms of low thyroid. They may have any of the following symptoms: feeling cold, cold hands and feet, elevated diastolic blood pressure secondary to vasoconstriction, fatigue, depression, constipation, hair loss, dry skin, insomnia, as well as others. They have often hit a plateau of weight loss even though they have continued to maintain their hypocaloric diet and exercise program. At point F, we begin treatment with thyroid hormone (for example, T4 with T3, T3 alone, T3 with T2 and T4, or T2 alone. Between points F and G, FT3 and rT3 (and FT4 if T4 was administered) are returning to more normal levels, while TSH plummets, often to undetectable levels. At time point H, symptoms of low thyroid are resolved, the patient has no symptoms of hyperthyroidism, and if rT3 had risen and was treated appropriately, rT3 decreased.
The first patient example is a person, 5′2″, weight 268 lbs, body mass index (BMI) 49 (nl 19-24; overweight 25-29; obesity≧30). Baseline blood pressure was 110/74, blood sugar (BS) was 153 mg/dL 10 days after their first visit. Their medical problems at baseline included obesity, type 2 diabetes mellitus (DM2), high blood pressure (HTN), fatigue, depression, and asthma. Their medications included glipizide 10 mg daily, amitriptyline 50 mg daily, metoprolol 50 mg daily, furosemide 40 mg daily, potassium chloride, lisinopril 10 mg daily, Advair Discus 500/50 twice daily (bid), and montelukast 10 mg daily. They were started on our comprehensive program. Five months after starting their weight loss treatment, they developed symptoms of hypothyroidism with constipation and fatigue. They had lost 28 lbs by this time and was having difficulty losing more weight even though they were eating less than they were before their weight loss treatment began. At the start of treatment, their FT4 was 0.9 ng/dL (nl 0.7-1.48). At the time of their low thyroid symptoms, their FT3 was 2.9 pg/mL (nl 1.71-3.71) and their FT4 was 0.91 ng/dL (nl 0.7-1.48). They were then treated with thyroid hormone (desiccated thyroid with a ratio of T4:T3 of about 4:1) at 60 mg daily for 6 days to acclimate, then increased to 120 mg daily. […] After two years on their weight loss treatment, their weight was 231 lbs. […] We tested for rT3 at this point. Their labs on the 150 mg dose of desiccated thyroid were: rT3 394 pg/mL (nl 90-350), FT3 3.94 pg/mL (nl 1.71-3.71), and FT4 1.24 ng/dL (nl 0.7-1.48). The task of bringing down their rT3 was then addressed. Over a period of a few months, their desiccated thyroid hormone was discontinued and instead the patient was given gradually increasing doses of T3 only, starting at 20 mcg daily and gradually increasing the T3 to 60 mcg bid. Five months after starting on T3 with increasing doses, their weight had dropped to 209 lbs. Their BP was 118/66 mmHg with pulse of 74 on lisinopril 10 mg daily, metoprolol 50 mg bid, and furosemide 40 mg daily. Instead of glipizide, they were taking metformin 500 mg bid. […] Their most recent labs on 60 mcg bid of T3 were FT3 3.8 pg/mL (nl 1.71-3.71), FT4 0.64 ng/dL (nl 0.7-1.48) and rT3 137 pg/mL (nl 90-350). Four months prior to this visit their BS was 125 mg/dl. […]

Question: What does the source list for N[C@@H](Cc1cc(I)c(Oc2ccc(O)c(I)c2)c(I)c1)C(=O)O [T3, (2S)-2-amino-3-[4-(4-hydroxy-3-iodo-phenoxy)-3,5-diiodo-phenyl]propanoic acid]?
Answer: FT4 (Patient Example 1, on 60 mcg bid, nl 0.7-1.48): 0.64 ng/dL; FT3 (Patient Example 1, on 60 mcg bid, nl 1.71-3.71): 3.8 pg/mL; rT3 (Patient Example 1, on 60 mcg bid, nl 90-350): 137 pg/mL; FT4 (Patient Example 2, T3 only, 25 mcg bid, nl 0.93-1.70): 0.67 ng/dL; FT3 (Patient Example 2, T3 only, 25 mcg bid, nl 2.2-4.0): 2.5 pg/mL; rT3 (Patient Example 2, T3 only, 25 mcg bid, nl 90-350): 193 pg/mL; FT4 (Patient Example 4, T3 50 mcg 2 PO q am and 1 PO 8-10 hours later, normal range 0.93-1.7): less than 0.1 ng/dL; FT3 (Patient Example 4, T3 50 mcg 2 PO q am and 1 PO 8-10 hours later, normal range 2.2-4.0): 7.0 pg/mL; rT3 (Patient Example 4, T3 50 mcg 2 PO q am and 1 PO 8-10 hours later, normal range 90-350): less than 15 pg/mL
